Results published in patent publication US20100086519A1, “Treatment of Hepatitis C Infection With Metalloporphyrins” (The Charlotte-Mecklenburg Hospital Authority d/b/a …, priority 2008, published 2010).
Where two headings read alike, the source gives them in different places.

How the values were obtained:
[1] = test system: 9-13 cells; experiment: CellTiter-Glo luminescent cell viability assay; assay type: cell-based, human
Experimental: The effect of ZnMP on cytotoxicity of treated cells was measured using CellTiter-Glo® Reagent by determining the number of viable cells based on quantitation of the ATP present, which signaled the presence of metabolically active cells. Cells were plated into a 96-well plate with 2500 to 5000 cells/well 24 hours before treatment. Cells were treated with indicated concentrations of ZnMP for 2, 6 and 24 hours in triplicate, an equal volume of CellTiter-Glo® Reagent was added to each well of cell culture medium. The luminescence was read on a Synergy HT microplate reader from Bio-Tek (Winooski, Vt.) with integration time set for 0.25 to 1 second. Decreases in luminescence were taken as an index of cellular cytotoxicity.
In this Example, the cytotoxicity of metalloporphyrins was evaluated. 9-13 cells were seeded into a 96-well plate 24 hours before treatment. Cells were incubated with the indicated concentrations of ZnMP for 0, 2, 6, 24 hours, and CellTiter-Glo® Reagent was added for CellTiter-Glo luminescent cell viability assay on a Synergy HT microplate reader with integration time set for 0.25 to 1 second. Decreases in luminescence were taken as an index of cellular cytotoxicity. * differs from vehicle, P<0.05, Data represent means±SE of triplicate determinations. […] Therefore, ZnMP concentrations not exceeding 20 μM for up to 6 hours or up to 10 μM for up to 24 hours were used.

[2] = biological target: T1, HCV NS5A protein (Hepatitis C virus genotype 1b, UniProt Q9WMX2); experiment: polyubiquitination of NS5A by immunoprecipitation and immunoblot in 9-13 cells; assay type: cell-based; set-up: processed into structural (C, E1, E2) and nonstructural (NS2, NS3, NS4A, NS4B, NS5A and NS5B) proteins; expressed in transfected cells; host or cells: 9-13 cells (human hepatoma cells with a replicating HCV NS3-NS5B region)
Experimental: Immunoprecipitation was carried out according to the Manufacturer's protocol. Briefly, cells were harvested in cold radioimmunoprecipitation assay (RIPA) buffer (50 mM Tris-HC1 [pH 7.4], 150 mM NaCl, 1 mM EDTA, 0.25% sodium deoxycholate, 1% IGEPAL CA-630, 1 mM PMSF, 1 mM NaF, 1 mM Na3VO4 and 1 μg/ml each of aprotinin, leupeptin, and pepstatin). The samples were pre-cleared with Protein A/G Agarose for 10 min at 4° C. and subsequently incubated while gently rotating at 4° C. overnight with primary antibody, followed by Protein A/G beads for 1 h at 4° C. Beads were spun down and washed twice with RIPA buffer. Protein samples were separated by electrophoresis on 4-15% SDS-PAGE gels, and transferred to PVDF membrane, conjugated ubiquitin was detected as described for Western blot analysis using anti-ubiquitin antibody.
This Example investigates whether ZnMP induces polyubquitination of NS5A to gain insight into the mechanism by which ZnMP mediates degradation of NS5A protein. 9-13 cells were treated without or with 10 μM ZnMP for 4 h. Total proteins were extracted for subsequent Western blot or immunoprecipitation analysis. Immunoprecipitation was carried out using anti-HCV NS5A antibody. Ubiquitin conjugation of NS5A [polyubiquitinated NS5A (Ub)n-NS5A]was examined with immunoprecipitation using an anti-HCV NS5A antibody and immunoblot using an anti-ubiquitin antibody. […] In FIG. 6B, ubiquitination of NS5A following ZnMP treatment, or vehicle (DMSO) only was compared. The positions of molecular mass markers (in kilodaltons) are indicated to the left of the gel. The bracket indicates polyubiquitinated NS5A. Asterisks indicate cross-reacting immunoglobulin heavy chain. […] These bands may represent polyubiquitinated NS5A.

[3] = test system: J6/JFH1 HCV; experiment: HCV RNA by qRT-PCR in Huh-7.5 cells infected with J6/JFH1 HCV; assay type: cell-based, hepatitis C virus; conditions: 10 μM, FIG. 8F
Experimental: (§1) Rice (the Rockefeller University, New York, N.Y.).
(§2) Total RNA from treated cells was extracted and cDNA was synthesized as described in Hou et al. Real time quantitative RT-PCR was performed using a MyiQ™ Single Color Real-Time PCR Detection System from Bio-Rad (Hercules, Calif.) and iQ™ SYBR Green Supermix Real-Time PCR kit (Bio-Rad). Samples without template and without reverse transcriptase were included as negative controls, which, as expected, produced negligible signals (Ct values>35). Fold-change values were calculated by comparative Ct analysis after normalizing for the quantity of GAPDH in the same samples.

[4] = test system: HCV replicon RNA; experiment: HCV RNA by qRT-PCR in Con1 full-length HCV replicon Huh-7.5 cells; assay type: cell-based, hepatitis C virus; conditions: different concentrations, 24 hours, FIG. 7A
Experimental: Bartenschlager (University of Heidelberg, Heidelberg, Germany).
as §2
Total RNA and proteins were extracted.

[5] = biological target: T1, HCV NS5A protein; experiment: NS5A protein half-life determination with cycloheximide in 9-13 cells; assay type: cell-based; set-up: processed into structural (C, E1, E2) and nonstructural (NS2, NS3, NS4A, NS4B, NS5A and NS5B) proteins; expressed in transfected cells; host or cells: 9-13 cells (human hepatoma cells with a replicating HCV NS3-NS5B region); conditions: 100 ug/mL CHX, 10 μM ZnMP, 0-4 h, FIGS. 4A, 4B
Experimental: 9-13 cells were incubated with 100 ug/mL cycloheximide (CHX) in the presence or absence of 10 uM ZnMP. Western blots were performed using anti-HCV NS5A and anti-GAPDH antibodies. Band intensities of Western blots were measured by densitometric analysis. GAPDH bands were used as internal controls to correct for protein loadings.
9-13 cells were treated with 100 ug/mL cycloheximide (CHX) and with or without 10 μM ZnMP for the indicated periods (0, 0.5, 1, 2, 4 h), and then cells were harvested and total proteins were isolated. Proteins were separated on 4-15% SDS-polyacrylamide gel, transferred to a PVDF membrane, anti-HCV NS5A or GAPDH specific antibodies were used to detect NS5A or GAPDH protein levels by Western blot. […] The band intensity of NS5A from untreated sample (0 h) was set at 1.

[6] = test system: HCV core protein; conditions: CNS3 cells, 0, 1, 5, 10 μM, 4 hours, FIG. 1C
Experimental: 9-13 cells, containing a replicating HCV nonstructural region, stably express HCV NS3 to NS5B. CNS3 cells stably express HCV core to NS3 (amino acid residues 1 through 1233 of the Con1 isolate; Gene Bank accession number AJ238799). Huh-7/T7 cells constitutively express the bacteriophage T7 RNA polymerase. The cells were maintained in DMEM supplemented with 10% (v/v) FBS and 500 μg/mL G418 for 9-13 cells, 10 μg/mL zeocin for CNS3 cells or 5 μg/mL zeocin for Huh-7/T7 cells. […] The Con1 cell line is a Huh-7.5 cell population containing the full-length HCV genotype 1b replicon with the highly adaptive serine to isoleucine substitution at amino acid 2204 of the polypeptide. […]
In brief, total proteins (30-50 μg) were separated on 4-15% gradient SDS-PAGE gels. […] Data are expressed as percentages of the controls (corresponding to the value obtained with the vehicle-treated cells), which were assigned values of one.
(§3) NS5A protein levels in 9-13 and Con1 cells, core protein levels in CNS3 cells, and NS5A and core protein levels in Huh-7/T7 cells transfected with pFK-Con1/GND (a plasmid encoding a replication deficient variant of Con1) exposed to different concentrations of ZnMP (0, 1, 5, 10 μM) for 4 hours were evaluated. […]

[7] = test system: HCV core protein
Experimental: In brief, total proteins (30-50 μg) were separated on 4-15% gradient SDS-PAGE gels. After electrophoretic transfer onto ImmunBlot PVDF membrane, membranes were blocked for 1 hour in PBS containing 5% nonfat dry milk and 0.1% Tween-20, and then incubated overnight with primary antibody at 4° C. The dilutions of the primary antibodies were as follows: 1:2000 for anti-HCV NS5A and anti-GAPDH antibodies, and 1:5000 for anti-HCV core antibody. The membranes were then incubated for 1 hour with horseradish peroxidase-conjugated secondary antibodies (dilution 1:10,000). Finally, the bound antibodies were visualized with the ECL-Plus chemiluminescence system according to the manufacturer's protocol. A Kodak 1DV3.6 computer-based imaging system (Rochester, N.Y.) was used to measure the relative optical density of each specific band obtained after Western blotting. Data are expressed as percentages of the controls (corresponding to the value obtained with the vehicle-treated cells), which were assigned values of one. […]
as §3

[8] = test system: HCV; experiment: anti-viral activity (summary statement); assay type: cell-based, hepatitis C virus
[9] = test system: J6/JFH1 HCV RNA; experiment: HCV RNA by qRT-PCR in Huh-7.5 cells transfected with J6/JFH1 RNA; assay type: cell-based, hepatitis C virus; conditions: 10 μM, FIG. 8E
Experimental: as §1, §2

[10] = test system: HCV core protein; conditions: J6/JFH1 RNA transfected Huh-7.5 cells
Experimental: In brief, total proteins (30-50 μg) were separated on 4-15% gradient SDS-PAGE gels. After electrophoretic transfer onto ImmunBlot PVDF membrane, membranes were blocked for 1 hour in PBS containing 5% nonfat dry milk and 0.1% Tween-20, and then incubated overnight with primary antibody at 4° C. The dilutions of the primary antibodies were as follows: 1:2000 for anti-HCV NS5A and anti-GAPDH antibodies, and 1:5000 for anti-HCV core antibody. The membranes were then incubated for 1 hour with horseradish peroxidase-conjugated secondary antibodies (dilution 1:10,000). Finally, the bound antibodies were visualized with the ECL-Plus chemiluminescence system according to the manufacturer's protocol. A Kodak 1DV3.6 computer-based imaging system (Rochester, N.Y.) was used to measure the relative optical density of each specific band obtained after Western blotting. Data are expressed as percentages of the controls (corresponding to the value obtained with the vehicle-treated cells), which were assigned values of one.
For HCV RNA transfection, Huh-7.5 cells were plated in 24-well plates one day prior to transfection and transfected at 70˜80% confluence. […]
Huh-7.5 cells were transfected with 2 μg/well of J6/JFH1 RNA by Lipofectamine 2000. […] HCV RNA was quantified by qRT-PCR, and HCV core, NS5A and GAPDH protein levels were measured by Western blots.

T1 sequence (Q9WMX2 1973-2419): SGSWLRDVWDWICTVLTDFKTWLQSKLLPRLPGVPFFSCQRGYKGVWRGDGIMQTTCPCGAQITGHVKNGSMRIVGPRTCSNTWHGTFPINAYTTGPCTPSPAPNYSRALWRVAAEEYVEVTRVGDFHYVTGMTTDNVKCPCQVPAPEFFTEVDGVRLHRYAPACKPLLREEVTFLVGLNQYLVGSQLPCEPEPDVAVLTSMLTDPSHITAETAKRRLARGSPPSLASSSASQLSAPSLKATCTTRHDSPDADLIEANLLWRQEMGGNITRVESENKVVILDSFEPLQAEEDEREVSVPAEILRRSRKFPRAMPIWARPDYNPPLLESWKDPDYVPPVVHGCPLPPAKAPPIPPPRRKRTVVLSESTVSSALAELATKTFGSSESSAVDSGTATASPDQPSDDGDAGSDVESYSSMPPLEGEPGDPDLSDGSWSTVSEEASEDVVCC

SMILES: CCC1=C(C)c2cc3[nH]c(cc4nc(cc5[n-]c(cc1n2)c(C)c5CCC(=O)[O-])C(CCC(=O)[O-])=C4C)c(C)c3CC.[H+].[Zn+2] [ZnMP, Zinc mesoporphyrin]
- cell viability ([1]; 20 μM, 2-6 hours): no significant effect
- cytotoxicity ([1]; 20 μM, 24 hours, p<0.05): significant cytotoxicity
- cell viability ([1]; 1-10 μM, 2-24 hours): no significant effect
- polyubquitination of NS5A (summary statement) [2]: induce polyubquitination
- polyubquitination of NS5A ([2]; 9-13 cells, 10 μM, 4 h, FIG. 6B): induce polyubquitination
- decrease of HCV RNA levels [3]: ~90%
- viral RNA levels [4]: dose-dependent reduction
- NS5A protein levels in presence of cycloheximide [5]: greatly and rapidly reduced
- HCV core protein levels [6]: no detectable effects
- HCV core protein levels ([7]; Huh-7/T7 cells transfected with pFK-Con1/GND, 0, 1, 5, 10 μM, 4 hours, FIG. 1D): no detectable effects
- HCV core protein levels ([7]; Huh-7/T7 cells, pFK-Con1/GND, 24 h, FIG. 7C): remained unaffected
- anti-viral activity (summary statement) [8]: display anti-viral activity
- decrease of HCV RNA levels [9]: ~70%
- core protein levels ([10]; 4 h): not affected
- core protein levels ([10]; 24 h): decrease
